Experimental data taken from US4552969A, “3-Alkanoyl benzothiazoline compounds useful for treating cardiovascular disease” (Santen Pharmaceutical Co., Ltd., priority 1981, dated 1985).
Structures can show the parent of a compound that is named as a salt.

Columns and labels:
[1] = tested on: platelet aggregation; assay: Pharmacological test II: anti-aggregatory activity, collagen or ADP induced platelet aggregation in vitro (platelet rich plasma); assay type: cell-based; conditions: Oryctolagus cuniculus, 50% inhibition of control response, rabbit PRP, 1 minute preincubation at 37° C., collagen (3 μg/ml) or ADP (3 μM), inducer not given
Excerpt: Blood platelet plays an important role only in hemostasis but also in thrombosis. Platelet hyperaggregability leads to an inclease in the number of circulating platelet aggregates, which may contribute toward the development of cardiac arrythmias, cardiac arrest or myocardial infarction. These cardiovascular diseases can be prevented by inhibition of platelet aggregation.
Blood was obtained from an anesthetized rabbit using 0.1 volumes of 3.8% sodium citrate as anticoagulant. Platelet rich plasma(PRP) was isolated by centrifugation at 650 rpm for 10 minutes at room temperature. After preincubation of PRP (0.25 ml) with various concentrations of test compounds (14 μl) for 1 minute at 37° C., collagen (3 μg/ml:final concentration) or ADP (3 μM:final concentration) was added to induce aggregation and the aggregation profiles were monitored with RIKADENKI six-channel aggregometer. The control experiment contained saline instead of test compound.
The anti-aggregatory activity was represented by the concentration of test compound which elicited 50% inhibition of control response.

[2] = tested on: guinea-pig teania coli; assay: Pharmacological test I: calcium-antagonistic activity, inhibition of Ca++-evoked contraction of isolated taenia coli; assay type: cell-based; conditions: Cavia porcellus, 5 min; 50% inhibition of contraction evoked by CaCl2 (3×10^-4 M); Ca++-free-high-K Krebs solution, 32° C., 5 minutes pre-exposure
Method: The action potentials on the smooth muscles of uterus, teania coli and portal vein are dependent on calcium ion, and therefor these smooth muscle preparations are useful for screening of calcium antagonists. We measured the calcium-antagonistic activity of the compounds by the method using guinea-pig teania coli preparation.
Isolated guinea-pig teania coil was suspended in a 20 ml organ bath with Krebs solution at 32° C. and bubbled with 5% carbon dioxide in oxygen. After equilibration, the muscle was washed with Ca^++ -free Krebs solution, and when the muscle had relaxed to basal level, it was suspended in Ca^++ -free-high-K Krebs solution.
The muscle was exposed to test compounds for 5 minutes before addition of CaCl2, and the contraction evoked by CaCl2 (3×10^-4 M) was recorded isotonically. The calcium-antagonistic activity was represented by the concentration of test compound which elicited 50% inhibition of Ca^++ -evoked contraction (IC50).

[3] = Acute toxicity test, oral; conditions: rat, in vivo, male ddy-SLC, 0.5% tragacanth suspension
Method: Male ddy-SLC strain rats (4 weeks of age, weighing 19-21 g) were placed in a breeding room of constant temperature and huminity (23±1° C., 55±5%) and fed freely pellet diet and water ad. libitum for a week. Rats showing normal growth were selected for the test.
Test compounds are suspended in 0.5% tragacanth suspention and administered orally in a dose of 0.5 ml/20 g body weight.

SMILES | IC50 [1] | IC50 [2] | LD50 [3]
COc1ccc(OCCCCN2CCN(CCc3cc(OC)c(OC)c(OC)c3)CC2)c(C2Sc3ccccc3N2C(C)=O)c1 (centres unmarked) [Compound 67] |  | 470 nM | > 1000 mg/kg
COc1ccc(OCCCCN2CCN(CCc3ccc(OC)c(OC)c3)CC2)c(C2Sc3ccccc3N2C(C)=O)c1 (centres unmarked) [Compound 63] |  | 640 nM | ≥ 3000 mg/kg
COc1ccc(OCCCCN(C)CCc2ccc(OC)c(OC)c2)c(C2Sc3ccccc3N2C(C)=O)c1 (centres unmarked) [Compound 23] |  | 660 nM | 
COc1ccc(OCCCCCCN(C)C2CCCCC2)c(C2Sc3ccccc3N2C(C)=O)c1 (centres unmarked) [Compound 22] | 1100 nM |  | 
CC(=O)N1c2ccccc2SC1c1cc([N+](=O)[O-])ccc1OCCCNCc1cccnc1 (centres unmarked) [Compound 33] |  | 520 nM | 
COc1ccc(OCCCCCN(C)C2CCCCC2)c(C2Sc3ccccc3N2C(C)=O)c1 (centres unmarked) [Compound 21, 3-Acetyl-2-[2-[5-(N-cyclohexyl-N-methlamino)pentyloxy]-5-methoxyphenyl]benzothiazoline fumarate] | 1300 nM |  | 
CC(=O)N1c2ccccc2SC1c1ccccc1OCCCN(C)C1CCCCC1 (centres unmarked) [Compound 8] | 4600 nM |  | 
CC(=O)N1c2ccccc2SC1c1cc([N+](=O)[O-])ccc1OCCCN(C)C1CCCCC1 (centres unmarked) [Compound 29] | 3200 nM |  | > 2000 mg/kg

Continued, in another order:

IC50 [1] | SMILES | IC50 [2] | LD50 [3]
3100 nM | COc1cc(C2Sc3ccccc3N2C(C)=O)cc(OC)c1OCCCN(C)C1CCCCC1 (centres unmarked) [Compound 54] |  | 
2000 nM | COc1cc(C2Sc3ccccc3N2C(C)=O)cc(OC)c1OCCCCN(C)C1CCCCC1 (centres unmarked) [Compound 55] |  | 
2700 nM | CC(=O)N1c2ccccc2SC1c1cc([N+](=O)[O-])ccc1OCCCN1CCC(Cc2ccccc2)CC1 (centres unmarked) [Compound 95] |  | 
